From patent US8642510B2, “Inhibitors for brassinosteroid signalling” (GMI-Gregor Mendel-Institut fuer Molekulare Pflanzenbiologie …, priority 2008, dated 2014)
Entries after “also recorded” stand apart in the source; their conditions may differ.

Key:
[1] = HPLC-analysis of plant extracts (fate of compound in planta); format: in vivo, A. thaliana; conditions: seedlings infiltrated, HPLC of extracts after 15 min
Protocol: FIG. 5: Estrified compounds are rapidly hydrolysed in planta. A. thaliana seedlings were infiltrated with ½MS medium containing 50 μM compound 10. Control samples were taken before infiltration (A) and analysed by HPLC. A biotransformation product (marked P) of compound 10 could be observed after 15 min (B). A chromatogram of a mixture of compounds 10, 15, and 17 (labelled with C10, C15 and C17, respectively) is shown for comparison (C). The small boxes inserted into the chromatograms show the UV spectra of the peaks in the range of 220 to 360 nm. mAU, milli absorption units recorded at 250 nm.
Two-week-old A. thaliana Co10 seedlings were vacuum infiltrated with ½MS or ½MS containing […] compound 10 as described previously (Rozhon et al., 2005). After 15 min and after 48 h samples were taken, rinsed with water and ground in liquid nitrogen to a fine powder. 100 mg powder were weighed into a reaction tube and 1 ml extraction buffer (20 mM TRIS/HCl pH6.8 dissolved in 20% acetonitrile) was added. […] The extracts were analysed by HPLC with the same settings as mentioned above.
To investigate these conflicting results, the fate of compound 10 in vivo was investigated. Seedlings were infiltrated with compound 10 and plant extracts subsequently analysed by HPLC. […]

bri1-1 mutant seedlings = assay: Physiological test, phenotype rescue of brassinosteroid signalling mutant bri1-1; format: in vivo, Arabidopsis thaliana; conditions: 30 μM in medium, 7 days
Protocol: (§1) FIG. 3: Effects on the phenotype of brassinosteroid mutants. 7-day-old seedlings of the brassinosteroid synthesis mutant cpd and signalling mutant bri1-1 were transferred to MS medium containing 1 μM epi-brassinolide (Epi-BL) or compounds 10 and 15 at a concentration of 30 μM and incubated for 7 days under long day conditions. All pictures were taken at the same magnification. The bar represents 1 mm.
(§2) Arabidopsis thaliana Co10 or bri1-1 seedlings were grown in vitro on ½ MS plates containing 1% sucrose in a growth camber under long day conditions (16 h light with 50 μE·m^−2·s^−1, 8 h dark) for 7 days. Subsequently, they were transferred to plates supplemented with inhibitors at different concentrations and effects on the phenotype were observed 7 days later.
(§3) Downregulation of ASK activity is crucial in brassinosteroid signalling. ASKs are constitutively active in cpd and bril-1 mutants, which are defective in brassinosteroid biosynthesis or signalling, respectively. This leads to severely dwarfed plants with dark green downward curled leaves and shortened hypocotyls. […] To screen for in vivo potency, cpd and bril-1 mutants were transferred to media containing 4-[(5-bromo-2-pyridinyl)amino]-4-oxobutanoic acid derivatives at a concentration of 30 μM. […] The potency to rescue the phenotype correlated with the results of the in vitro assay.

cpd mutant seedlings = assay: Physiological test, phenotype rescue of brassinosteroid synthesis mutant cpd; format: in vivo, Arabidopsis thaliana; conditions: 30 μM in medium, 7 days
Protocol: as §1, §2, §3

[2] = Determination of pKa values; conditions: pH5.8, the pH of the medium
Protocol: Fifty to 100 mg compound were weighed and dissolved in 50 ml 50% (v/v) methanol. A titration curve with 50 mM NaOH as standard solution was recorded with a Greisinger electonics GPHR 1400A pH meter. The equivalence point was determined by the difference quotient method (ΔpH/ΔVNaOH) and the pKa read from the titration curve at 50% neutralisation.

ASKζ = target: T1, ASKζ (Arabidopsis thaliana, UniProt Q39010); assay: In vivo kinase assay, BZR1-CFP phosphorylation band-shift in protoplasts; format: cell-based, A. thaliana; conditions: protoplasts co-transformed with BZR1-CFP and Myc-tagged ASK; increasing concentrations
T1 construct: expressed in transfected cells; host or cells: A. thaliana protoplasts
T1 sequence (Q39010 1-412): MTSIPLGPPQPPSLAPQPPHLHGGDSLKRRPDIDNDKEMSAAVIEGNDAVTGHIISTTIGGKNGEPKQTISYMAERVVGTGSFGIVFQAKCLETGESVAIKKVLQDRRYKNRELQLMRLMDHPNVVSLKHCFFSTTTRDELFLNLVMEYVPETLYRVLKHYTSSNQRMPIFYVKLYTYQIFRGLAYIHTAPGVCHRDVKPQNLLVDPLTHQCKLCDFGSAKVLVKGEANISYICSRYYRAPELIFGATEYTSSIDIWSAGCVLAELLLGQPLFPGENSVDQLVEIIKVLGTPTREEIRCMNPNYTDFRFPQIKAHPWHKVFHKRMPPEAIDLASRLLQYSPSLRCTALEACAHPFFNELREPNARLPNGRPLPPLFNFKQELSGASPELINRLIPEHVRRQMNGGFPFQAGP
Excerpt: A. thaliana protoplasts were co-transformed with expression constructs of BZR1-CFP and Myc-tagged ASKζ and treated with increasing concentrations of compounds 10 and 15. […] and ASKζ-Myc were detected by western blot analysis using polyclonal anti-GFP and monoclonal anti-Myc antibodies, respectively. A Coomassie R250 stain is shown as a loading control. Depending on the ASKζ kinase activity BZR1-CFP can be observed in a phosphorylated or unphosphorylated form (indicated by arrows). The ratio of the two ASKζ-Myc bands, indicating posttranslational modification of this protein, were not affected by inhibitor application.
ASKs were expressed as GST-fusion proteins in E. coli BL21. […] The reaction products were separated by SDS-PAGE and the amount of radioactivity incorporated into MBP quantified using an Amersham storage phosphor imager screen and a Biorad Molecular Imager FX. In vivo kinase activity was detected by phosphorylation band-shift assays using BZR1-CFP as substrate.
Because of this unexpected result, the effect of the inhibitions on the in vivo ASK activity was analysed by a direct method. […] Transformed protoplasts were incubated with different concentrations of compounds 10 and 15 and BZR1-CFP and […] and subsequently analysed by western blotting.

COC(=O)CCC(=O)Nc1ccc(I)cn1 [Compound 10, 4-[(5-iodopyrid-2-yl)amino]-4-oxobutanoic acid methyl ester]
Stability in planta (hydrolysis of methyl ester to free acid) [1]: not stable in vivo but rapidly converted; also recorded: rapidly cleaved off
Rescue of bri1-1 mutant phenotype (bri1-1 mutant seedlings): highly active in vivo
Rescue of cpd mutant phenotype (cpd mutant seedlings): highly active in vivo
Portion undissociated / lipophilic, capable of diffusion through the membrane [2]: 100%
Inhibition of in vivo ASK activity (BZR1-CFP phosphorylation shift) (ASKζ): potent inhibitors in vivo; also recorded: highly active
